Tested on: Escherichia coli isolate
Test: Digital same-sample filtration AST, one treated and one concurrent reference condition (Example 5)
Assay type: cell-based
Settings: 1.0 μg/mL ETP; for lysed cells detected: all detected treated cells lysed
Procedure: The inoculum was small enough that no detectable difference in the sample's optical density at 600 mm (OD600) was detectable by a spectrophotometer with a sensitivity of 0.01 absorbance units. After an incubation at 37° C., the media became turbid with an OD600 of 0.18 absorbance units after 3 hours of incubation.
In this experiment, the number and volume of sample partitions was restricted, for logistical reasons, to 96 partitions 10 μL, in volume, specifically the wells of a 96-well plate. A goal was chosen of having a >98% chance of ending up with at least 48 empty partitions. When all partitions are the same volume, the following formula relates the expected number of empty partitions, the partition volume, and the density of cells.
N is the total number of partitions, n is the number of empty partitions, V is the partition volume, D is the density of cells, and t is a threshold probability chosen by the practitioner. Thus, in order to achieve digital sample partitioning with the available 96-well plate, the contrived clinical specimen was diluted to a cell density of 0.0375 cells/μL. Each 10 μL sample of the specimen would then contain 0.375 cells on average.
To begin the AST protocol, the contrived clinical specimen was physically split into the 96 partitions by transferring 10 μL of the sample, in 96 separate transfers (actually 12 transfers with a multichannel pipette), to 96 wells of a microtiter plate. Each well contained 15 μL of Mueller-Hinton Broth (MHB) growth media. Half of the wells (48) contained 0 μg/mL of dissolved ETP antibiotic and served as reference condition antibiotic exposures. The other half of the wells contained 1.67 μg/mL of ETP (for a final concentration of 1.0 μg/mL) and served as 48 treated condition antibiotic exposures. The 96 antibiotic exposures were incubated at 37° C. for 70 minutes.
The entire volume of each antibiotic exposure was transferred to a Millipore® 96-well sterile polystyrene MultiScreenHTS® filter plate (Millipore-Sigma MSGVS2210). Each well of the filter plate contained a hydrophilic polyvinylidene fluoride (PVDF) filter membrane with a 0.22 μm pore size. The antibiotic exposures were centrifuged at 2200 relative centrifugal force to speed the passage of the antibiotic exposure through the filter and into 96 collecting vessels. The collected fluid was called the “filtrate.”
50 μL of fresh MHB media was spun through the filters after the first centrifugation (above) to wash away residual extracellular nucleic acids present in the fluid wetting the filters. This wash fluid is not collected with the filtrates.
10 μL of each of the filtrates was added to and mixed with 10 μL of Lucigen DNA Extraction Buffer, heated to 65° C. for 6 minutes, then heated to 98° C. for 4 minutes.
20 μL of DNA Extraction Buffer was placed on top of the filters. The filter plate was heated to 65° C. for 6 minutes, shaking at 700 rpm, on a ThermoMixer® flat surface heating block. Then, the filter plate was taped to a clean 96-well polypropylene microtiter plate and centrifuged at 2000 rcf for 2 minutes. The DNA Extraction Buffer fluid that flowed through the filter was collected in the microtiter plate below the filter plate. Next, the microtiter plate was heated to 98° C. for 4 minutes inside a BioRad thermocycler. These collected and heated fluid volumes are termed the “lysates” which comprise intracellular nucleic acid.
Separately, for each of the 96 extracted filtrates and for each of the 96 extracted lysates, 1.00 μL of the extracted filtrate was mixed with 0.02 μL of 3 U/mL Lucigen® RapiDxFire thermostable reverse transcriptase, 0.2 μL of Lucigen® RapiDxFire 10× thermostable buffer, 0.1 μL of 10 mM deoxyribonucleic acid nucleotides, 0.6 μL of deionized water, and 0.08 μL of a 10 μM aqueous solution of DNA primer, according to manufacturer's instructions, to create a reverse transcription reaction with a total volume of 2.0 μL. […]

`C[C@@H](O)[C@H]1C(=O)N2C(C(=O)O)=C(S[C@@H]3CN[C@H](C(=O)Nc4cccc(C(=O)O)c4)C3)[C@H](C)[C@H]12` [ETP, ertapenem] was tested, and the “percent extracellular of detected antibiotic-treated cells (lysis)” value (70 minutes 37° C., qPCR 23S rRNA, 96 partitions) was 100%, the “susceptibility call (Fisher's exact test)” value (70 minutes, ddPCR) was “susceptible” and the “percent extracellular of detected antibiotic-treated cells (lysis)” value (70 minutes, ddPCR 23S rRNA, 56 of the 96 partitions) was 100%. The lysed cells detected (70 minutes, ddPCR, 56 of the 96 partitions) was 9, the “susceptibility call (Fisher's exact test)” value (70 minutes, qPCR) was “susceptible” and the lysed cells detected (70 minutes, qPCR, of the 96 partitions) was 19.

— US20220282304A1, “SAME-SAMPLE ANTIBIOTIC SUSCEPTIBILITY TEST AND RELATED COMPOSITIONS, METHODS AND SYSTEMS” (CALIFORNIA INSTITUTE OF TECHNOLOGY, priority 2021, published 2022)
